Experimental data reported in the Deep4Chem optical property database.
Values belong to the compound of their own block, whether it stands above or below them.

Experiment: solvent given as SMILES

emission maximum (in C1CCOC1): 560 nm
Structure (SMILES): c1cc2ccc1-c1ccc(cc1)-c1ccc([se]1)-c1ccc(cc1)-c1ccc(cc1)-c1ccc([se]1)-c1ccc(cc1)-c1ccc(cc1)-c1ccc-2[se]1

emission maximum (in ClC(Cl)Cl): 491 nm
Structure (SMILES): CC(C)(C)c1ccc2oc3nc4oc5ccc(N6c7ccccc7Oc7ccccc76)cc5c4cc3c2c1

emission maximum (in ClC(Cl)Cl): 544 nm | emission maximum (in ClCCl): 578 nm
Structure (SMILES): COc1cc2cc(OC)c(-c3ccc([N+](=O)[O-])cc3)cc2cc1-c1ccc([N+](=O)[O-])cc1

emission maximum (in ClCCl): 841 nm
Structure (SMILES): Cc1ccc(C2=[N+]3C(=Nc4c5ccccc5c(-c5ccc(C)s5)n4[B-]3(F)F)c3ccccc32)s1

emission maximum (in CN(C)C=O): 408 nm
Structure (SMILES): O=c1[nH]nc(-c2ccc(/C=C/c3ccc(-c4n[nH]c(=O)o4)cc3)cc2)o1

emission maximum (in C1CCOC1): 525 nm
Structure (SMILES): C[Si]1(c2ccccc2)C(c2ccc3c4ccccc4n(-c4ccccc4)c3c2)=C(c2ccccc2)C(c2ccccc2)=C1c1ccc2c3ccccc3n(-c3ccccc3)c2c1

emission maximum (in CS(C)=O): 552 nm | emission maximum (in ClCCl): 509 nm
Structure (SMILES): CCNc1cc2oc(=O)c3c(=O)oc4ccccc4c3c2cc1C

emission maximum (in CO): 606.31 nm
Structure (SMILES): c1cc2c(C3SCCCS3)c3ccc(=[N+]4CCCCC4)cc-3oc2cc1N1CCCCC1

emission maximum (in ClC(Cl)Cl): 648 nm
Structure (SMILES): CCCN1c2ccccc2Sc2cc(/C=C\c3cc(=O)oc4cc(C)c(Cl)cc34)ccc21

emission maximum (in CO): 663 nm | emission maximum (in CS(C)=O): 673 nm | emission maximum (in O): 669 nm
Structure (SMILES): CCCN1/C(=C/C=C(/C=C/c2sc3ccccc3[n+]2CCC)c2ccc([N+](=O)[O-])cc2)Sc2ccccc21

emission maximum (in ClCCl): 441 nm
Structure (SMILES): C(#Cc1nc(C#Cc2cccs2)c(C#Cc2cccs2)c(C#Cc2cccs2)c1C#Cc1cccs1)c1cccs1

emission maximum (in ClCCl): 448 nm
Structure (SMILES): CCCCn1c(-c2ccc(-c3nnc(-c4ccc5ccccc5c4)o3)cc2)nc2c3ccccc3c3ccccc3c21

emission maximum (in ClCCl): 372 nm
Structure (SMILES): c1ccc2c(c1)-c1cc(-n3c4ccccc4c4ccccc43)ccc1C21c2ccccc2-n2c3ccccc3c3cccc1c32 (centres undefined)

emission maximum (in CO): 811 nm
Structure (SMILES): CC1(C)C(/C=C/C2=C(c3ccc(C(=O)O)cc3)C(=C/C=C3/N(CCCCS(=O)(=O)[O-])c4ccc5ccccc5c4C3(C)C)/CCC2)=[N+](CCCCS(=O)(=O)[O-])c2ccc3ccccc3c21

emission maximum (in C1CCOC1): 659 nm
Structure (SMILES): CC1=C(C#Cc2ccc(N(c3ccccc3)c3ccccc3)cc2)C(C)=[N+]2C1=C(c1ccccc1)c1c(C)c(C#Cc3ccc(N(c4ccccc4)c4ccccc4)cc3)c(C)n1[B-]2(F)F

emission maximum (in ClCCl): 456 nm
Structure (SMILES): F[B-]12OC(c3ccccc3)=Nc3cccc([n+]31)N=C(c1ccccc1)O2

The next lines start with the compound.

Structure (SMILES): COc1cc2cc(-c3cc4cc(OC)c(OC)cc4oc3=O)oc2cc1OC
emission maximum (in CC#N): 493 nm | emission maximum (in CCOC(C)=O): 478 nm | emission maximum (in CS(C)=O): 500 nm | emission maximum (in Cc1ccccc1): 475 nm | emission maximum (in O): 435 nm

Structure (SMILES): Cc1c(C2=[N+]3C(=Cc4c(C)c5ccccc5n4[B-]3(F)F)c3ccccc32)[nH]c2ccccc12
emission maximum (in C1CCOC1): 646 nm | emission maximum (in CC#N): 637 nm | emission maximum (in CCCCCC): 644 nm | emission maximum (in CO): 643 nm | emission maximum (in Cc1ccccc1): 656 nm | emission maximum (in ClCCl): 648 nm

Structure (SMILES): O=Cc1cc(O)c(C=O)cc1O
emission maximum (in C1CCOC1): 468 nm | emission maximum (in C1COCCO1): 468 nm | emission maximum (in CC#N): 474 nm | emission maximum (in CC(C)=O): 470 nm | emission maximum (in CCCO): 491 nm | emission maximum (in CCO): 491 nm | emission maximum (in CN(C)C=O): 492 nm | emission maximum (in CN(C)P(=O)(N(C)C)N(C)C): 493 nm | emission maximum (in CNC=O): 479 nm | emission maximum (in CO): 492 nm | emission maximum (in CS(C)=O): 495 nm | emission maximum (in NC=O): 490 nm

Structure (SMILES): CN(C)c1ccc(C2=Cc3cccc[n+]3[B-](F)(F)O2)cc1
emission maximum (in C1CCOC1): 499 nm | emission maximum (in C1COCCO1): 486 nm | emission maximum (in CC1CCCCC1): 447 nm | emission maximum (in CC#N): 528 nm | emission maximum (in CCOC(C)=O): 499 nm | emission maximum (in CCOCC): 477 nm | emission maximum (in CN(C)C=O): 530 nm | emission maximum (in CO): 517 nm | emission maximum (in COC(C)=O): 514 nm | emission maximum (in ClC(Cl)Cl): 490 nm

Structure (SMILES): O=CC1=C(c2ccc(-c3cccs3)s2)CCC1
emission maximum (in C1CCOC1): 479 nm | emission maximum (in CC#N): 493 nm | emission maximum (in CCCCCC): 456 nm | emission maximum (in CCO): 514 nm | emission maximum (in OCCOCCO): 527 nm | emission maximum (in c1ccncc1): 494 nm

Structure (SMILES): CC1(C)c2ccccc2N(c2ccc3c(c2)c2cc(N4c5ccccc5C(C)(C)c5ccccc54)ccc2c2nc4ccccc4nc32)c2ccccc21
emission maximum (in Cc1ccccc1): 553 nm | emission maximum (in c1cc(-c2cccc(-n3c4ccccc4c4ccccc43)c2)cc(-n2c3ccccc3c3ccccc32)c1): 565 nm

Structure (SMILES): COc1ccc2c3c(cccc13)C(=O)N(C)C2=O
emission maximum (in C1CCCCC1): 404 nm | emission maximum (in C1CCOC1): 430 nm | emission maximum (in CC#N): 434 nm | emission maximum (in CC(C)CC(C)(C)C): 402 nm | emission maximum (in CCCCCCCCCCCC): 402 nm | emission maximum (in CCO): 444 nm | emission maximum (in CN(C)C=O): 444 nm | emission maximum (in CO): 450 nm | emission maximum (in CS(C)=O): 452 nm | emission maximum (in ClC(Cl)(Cl)Cl): 412 nm | emission maximum (in O): 462 nm

Structure (SMILES): CCCCCCCCCCCCOc1cc2c3c(ccc4c5c(NC6CCCCC6)cc6c7c(ccc(c1c34)c75)C(=O)N(C1CCCCC1)C6=O)C(=O)N(C1CCCCC1)C2=O
emission maximum (in ClC(Cl)Cl): 722 nm

Structure (SMILES): CCCCC(CC)COc1cc(OCC(CC)CCCC)c2c#cc3ccc4oc5ccc(c#cc6cc(c#cc7ccc8oc9ccc(c#cc1c2)cc9c8c7)c(C(CCCC)OCCC)cc6C(CCCC)OCCC)cc5c4c3 (centres undefined)
emission maximum (in ClCCl): 377 nm

Structure (SMILES): Cn1cc(-c2nc3ccccc3nc2/C=C/N2CCCC2)c2ccccc21
emission maximum (in CC#N): 556.97 nm | emission maximum (in CC(C)=O): 465.99 nm | emission maximum (in CCO): 548.05 nm

Structure (SMILES): F[B-]1(F)Oc2ccccc2-c2nc(-c3ccccc3)c3ccccc3[n+]21
emission maximum (in Cc1ccccc1): 529 nm

Structure (SMILES): Cc1ccc(N2C(c3ccccc3[NH-])=[NH+]C(c3ccccc3)C2c2ccccc2)cc1 (centres undefined)
emission maximum (in Cc1ccccc1): 572 nm
